Assay results taken from patent US11149277B2, “Method of producing enriched exosomes” (National Health Research Institutes, priority 2016, dated 2021).

Experiments:
[1] = test system: mesenchymal stem cells (MSCs); experiment: Osteogenic, adipogenic and neural differentiation of MSCs; format: cell-based; details: GW-treated MSCs
Method: (A) and (B) show osteogenic differentiation of MSCs and EP4 antagonist GW-treated MSCs. MSCs were cultured in osteogenic differentiation medium and then stained with Alizarin Red S. Osteogenic differentiation was quantified by measuring the optical density (OD) of Alizarin Red S staining. […] MSCs were cultured in adipogenic differentiation medium. […] MSCs were cultured in neural differentiation medium for 7 or 14 days and then analyzed for the expression of neuronal marker tublin β3 and NeuN using western blotting.
GW-treated MSCs were cultured in osteogenic differentiation medium, adipogenic differentiation medium and neuron differentiation medium, respectively.

[2] = test system: NAMECs; experiment: Boyden chamber migration of NAMECs; format: cell-based, human; details: GW pre-treatment, 4 days
Method: FIG. 3 includes a set of images and two graphs. (A) is a set of bright-field images of NAMECs treated with vehicle, GW627368X, Dynasore (1 μM), or GW627368X plus Dynasore (0.5, 1, 1.5 μM) for 4 days. Scale bar, 100 μm. (B) is a graph showing the percentage of NAMECs treated with vehicle, GW627368X, Dynasore (1 μM), or GW627368X plus Dynasore (0.75 and 1 μM) that were resistant to 0.05% trypsin. Data are means±SEM, (n=3). ***P≤0.001. (C) is a graph showing Boyden chamber migration of NAMECs treated with vehicle (Crl), GW627368X, Dynasore (1 μM), or GW627368X plus Dynasore (0.5, 0.75, 1 μM) for 4 days. Data are means±SEM (n=3). **P≤0.005. ***P≤0.001.

[3] = test system: neural stem cells (NSCs); experiment: EV/exosome markers and SOX2 in neural stem cells; format: cell-based; details: GW for 4 days
Excerpt: FIG. 10 includes blots and a graph. (A) is a graph showing vesicle number analysis of GW-treated mesenchymal stem cells (MSCs) P4 fractions. The CM-P4 GW-treated MSCs were collected and subjected to NanoSight Nanoparticle Tracking Analysis (NTA). Quantification of EV/exosome release is shown as the ratio of [vesicle number]/[cell number]. Data are means±SEM (n=3). ***P≤0.001. (B) is a set of blots showing the protein contents measured in the EV/exosome fraction released by MSCs treated with vehicle DMSO (MSC) or EP4 antagonists (MSCGW). The culture media (D1-4: conditioned medium from day 1 to day 4; D5-8: conditioned medium from day 5 to day 8) were collected from MSCs treated with vehicle (MSC), or GW (MSCGW) for 8 days. (C) is a set of blots showing the protein contents measured in the EV/exosome fraction released by neural stem cells (NSCs) treated with vehicle DMSO or EP4 antagonists. The culture media were collected from […] treated with DMSO or GW for 4 days. EV/exosome protein released by the same number of NSCs was loaded in the Western blotting.
Isolated neural stem cells (NSCs) were cultured in NSC medium (225 ml low glucose DMEM, 225 ml F12, 50 ml vesicle-depleted Bovine serum) with or without an EP4 antagonist (GW at 20-30 μg/ml) for 4 days. The culture medium was supplied with 10-15 μg/ml of GW on the third day of the cultural period. […]

[4] = test system: NAMECs; experiment: RT2 Profiler PCR arrays of signaling pathway target genes; format: cell-based, human; details: 48-hour treatment
Method: The percentages of the target genes which, relative to NAMEC control cells, were inhibited, unchanged, or activated in GW627368X-treated NAMECs are presented in the plot.
To evaluate whether there is selective release of components of alternative signaling pathways, the activation and suppression of signaling pathways in GW-treated NAMECs were analyzed using RT2 Profiler PCR arrays. […] The decrease of p-Akt in GW-treated NAMECs and the enrichment of p-Akt in GW induced exosomes was reflected in inactivation of PI3K/Akt-signaling. Thus, EP4 antagonists are likely to interfere with the Akt-dependent signaling pathway by decreasing cellular p-Akt via exosome release.

[5] = test system: MCF-7 cells; experiment: NTA and EV protein of CM-P4 fractions of MCF-7 cells; format: cell-based, human; details: increasing concentrations of GW
Excerpt: (A) Quantification of EV/exosome release, shown as the number of particles in the CM-P4 fractions released per cell, from MCF-7 and MDA-MB-231 breast cancer cells treated with vehicle or with the indicated concentrations of GW627368X. Particles in the P4 fractions were counted using nanoparticle tracking analysis. Data are means±SEM (n=10). *P≤0.05, ***P≤0.001. (B) Quantification of the total EV protein released from MCF-7 and MDA-MB-231 cells treated with vehicle or with the indicated concentrations of GW627368X. The amounts (m) of protein present per cell in the conditioned medium P4 fractions are presented as means±SEM (n=3). *P≤0.05; (C) Protein levels in the P4 EV/exosome fractions and cell lysates, analyzed by Western blot. Culture media and cell lysates were collected from the same numbers of MCF-7 and MDA-MB-231 cells treated with vehicle or with GW627368X (GW), at the indicated concentrations, for 4 days. The P4 fractions of the culture media, containing EVs, were isolated. […]
We next examined whether blocking EP4-mediated signaling with an EP4 antagonist can elicit EV-mediated removal of CSC proteins (e.g., mesenchymal markers and stem cell markers) in the human breast carcinoma MCF-7 and MDA-MB-231 cell lines. P4 fractions from the conditioned media (CM-P4) of GW-treated MCF-7 and MDA-MB-231 cells were analyzed using NTA (FIG. 21, A). […]

CCOc1c2c(c(OCC)c3ccccc13)C(=O)N(c1ccc(CC(=O)NS(=O)(=O)c3ccccc3)cc1)C2 [GW627368X]
abilities to differentiate into osteoblasts, adipocytes or nerve cells vs non-treated MSCs [1]: much lowered | decrease of number of migrating cells [2]: ~60% | content of exosomal markers CD81 and GAPDH in NSC culture [3]: increased | expression level of NSC marker SOX2 vs non-treated NSCs [3]: much lower | signaling pathways most inhibited [4]: PI3K/Akt, TGF-β, Wnt and androgen pathways | numbers of EVs released [5]: modestly increased
